Data from article PMC11335262 (Cellular and Molecular Life Sciences: CMLS, 2024).
Read-outs that look alike come from different tables or passages of the source.

Experiments:
α9α10^α9Nt–TM2 = α9α10^α9Nt–TM2 (Rattus norvegicus, UniProt P43144+Q9JLB5, A103S/A128E/A130V/A141L/A146S/A160Y/A165S/A191G/A194S/A236S/A237S/A238F/A257S/A39E/A49E/A97Q/C241V/D100R/D263A/E60Q/E85T/F249L/G169N/G178N/G188L/G99D/H138Y/H177Y/H180N/H259Y/H92T/I284M/I67K/K96D/L182V/L205H/L214I/L245I/L252F/L278M/L285V/L78A/N199D/N40D/P126S/P127S/P186N/P95R/Q125E/Q53A/R109D/R143T/R151K/R155V/R167Q/R185F/R187A/R203E/R210V/R211K/R212N/R233K/R35S/S129P/S131N/S159T/S192D/T124D/T189D/T215S/T42S/T54V/T87H/V136L/V142I/V184I/V197I/V240I/V274I/V75I); format: cell-based; settings: 30 µM ACh; for ACh response, % of response at […] Ca^2+: Vhold -90
α9α10 nAChR = α9α10 nAChR (Rattus norvegicus, UniProt P43144+Q9JLB5); format: cell-based; settings: 10 µM ACh; for ACh response, % of responses at […] Ca^2+: Vhold -90
α9α10^α9extra = α9α10^α9extra (Rattus norvegicus, UniProt P43144+Q9JLB5, A264D/A308T/A312F/A328P/E329N/F253L/F325Y/H335A/I246L/I275V/I304M/I310V/I323L/L250F/L309M/M279L/M285I/M319L/R331H/S258A/V286L/V320I/Y260H); format: cell-based; settings: for ACh response, % of response at […] Ca^2+: Vhold -90
α9α10^α9TM2TM3loop = α9α10^α9TM2TM3loop (Rattus norvegicus, UniProt P43144+Q9JLB5, A292S/P291A/S288I/S294N); format: cell-based; settings: for ACh response, % of response at […] Ca^2+: Vhold -90
α9α10E71Q = α9α10E71Q (Rattus norvegicus, UniProt P43144+Q9JLB5, E71Q); format: cell-based
α9α10^α9Nt–TM2TM3loop = α9α10^α9Nt–TM2TM3loop (Rattus norvegicus, UniProt P43144+Q9JLB5); format: cell-based; settings: for ACh response, % of response at […] Ca^2+: Vhold -90
homomeric α9 nAChR = settings: cited from earlier work
α9α10E201Q = α9α10E201Q (Rattus norvegicus, UniProt P43144+Q9JLB5, E201Q); format: cell-based
α9α10^α9Nt–TM1TM2loop = α9α10^α9Nt–TM1TM2loop (Rattus norvegicus, UniProt P43144+Q9JLB5, A103S/A128E/A130V/A141L/A146S/A160Y/A165S/A191G/A194S/A236S/A237S/A238F/A257S/A39E/A49E/A97Q/C241V/D100R/D263A/E60Q/E85T/F249L/G169N/G178N/G188L/G99D/H138Y/H177Y/H180N/H259Y/H92T/I67K/K96D/L182V/L205H/L214I/L245I/L252F/L78A/N199D/N40D/P126S/P127S/P186N/P95R/Q125E/Q53A/R109D/R143T/R151K/R155V/R167Q/R185F/R187A/R203E/R210V/R211K/R212N/R233K/R35S/S129P/S131N/S159T/S192D/T124D/T189D/T215S/T42S/T54V/T87H/V136L/V142I/V184I/V197I/V240I/V75I); format: cell-based; settings: 40 µM ACh; for ACh response, % of response at […] Ca^2+: Vhold -90
α9α10^α9Nt = α9α10^α9Nt (Rattus norvegicus, UniProt P43144+Q9JLB5, A103S/A128E/A130V/A141L/A146S/A160Y/A165S/A191G/A194S/A39E/A49E/A97Q/D100R/E60Q/E85T/G169N/G178N/G188L/G99D/H138Y/H177Y/H180N/H92T/I67K/K96D/L182V/L205H/L214I/L78A/N199D/N40D/P126S/P127S/P186N/P95R/Q125E/Q53A/R109D/R143T/R151K/R155V/R167Q/R185F/R187A/R203E/R210V/R211K/R212N/R233K/R35S/S129P/S131N/S159T/S192D/T124D/T189D/T215S/T42S/T54V/T87H/V136L/V142I/V184I/V197I/V75I); format: cell-based; settings: 10 µM ACh; for ACh response, % of response at […] Ca^2+: Vhold -90
[1] = read-out: Ca^2+ IC50, block of responses to 100 µM ACh

[Ca+2] [Ca^2+, Calcium]
modulation of ACh-evoked responses by extracellular Ca^2+ (in words) (α9α10^α9Nt–TM2): potentiated by Ca^2+ up to 0.2 mM and blocked by higher concentrations
ACh response, % of response at […] Ca^2+ (α9α10^α9Nt–TM2; 0.2 mM Ca^2+): 322.0 ± 40.0%
ACh response, % of response at […] Ca^2+ (α9α10^α9Nt–TM2; 3 mM Ca^2+): 69.5 ± 7.6%
0.2 / 0 Ca^2+ ratio of response amplitudes (α9α10^α9Nt–TM2; +40 mV): 2.8 ± 0.4
0.2 / 0 Ca^2+ ratio of response amplitudes (α9α10^α9Nt–TM2; -90 mV): 4.1 ± 0.2
ACh response, % of response at […] Ca^2+ (α9α10^α9Nt–TM2; nominally zero Ca^2+): 132.4 ± 27.5%
modulation of ACh-evoked responses by extracellular Ca^2+ (in words) (α9α10 nAChR): potentiated by sub-millimolar Ca^2+ concentrations
ACh response, % of responses at […] Ca^2+ (α9α10 nAChR; 0.5 mM Ca^2+ (maximum)): 142.98 ± 10.12%
ACh response, % of responses at […] Ca^2+ (α9α10 nAChR; nominally zero Ca^2+): 16.79 ± 6.47%
modulation of ACh-evoked responses by extracellular Ca^2+ (in words) (α9α10^α9extra; 10 µM ACh): not potentiated by Ca^2+, and only blocked by increasing Ca^2+ concentrations
ACh response, % of response at […] Ca^2+ (α9α10^α9extra; 3 mM Ca^2+, 10 µM ACh): 72.3 ± 5.3%
3 / 0 Ca^2+ ratio of response (α9α10^α9extra; +40 mV, 10 µM ACh): 0.60 ± 0.08
3 / 0 Ca^2+ ratio of response (α9α10^α9extra; -90 mV, 10 µM ACh): 0.20 ± 0.05
IC50 (α9α10^α9extra; read-out: Ca^2+ IC50, block of responses to 10 µM ACh, -90 mV): 700 ± 200 µM
ACh response, % of response at […] Ca^2+ (α9α10^α9extra; zero Ca^2+, 10 µM ACh): 217.3 ± 6.3%
modulation of ACh-evoked responses by extracellular Ca^2+ (in words) (α9α10^α9TM2TM3loop; 50 µM ACh): not potentiated by extracellular Ca^2+, but instead blocked by this ion
ACh response, % of response at […] Ca^2+ (α9α10^α9TM2TM3loop; 3 mM Ca^2+, 50 µM ACh): 71.3 ± 5.2%
ACh response, % of response at […] Ca^2+ (α9α10^α9TM2TM3loop; 3 mM Ca^2+, sub-EC50 25 µM ACh): 46.3 ± 20.9%
3 / 0 Ca^2+ ratio of response (α9α10^α9TM2TM3loop; +40 mV, 50 µM ACh): 0.74 ± 0.14
3 / 0 Ca^2+ ratio of response (α9α10^α9TM2TM3loop; -90 mV, 50 µM ACh): 0.14 ± 0.02
ACh response, % of response at […] Ca^2+ (α9α10^α9TM2TM3loop; zero Ca^2+, 50 µM ACh): 401.0 ± 103.4%
ACh response, % of response at […] Ca^2+ (α9α10^α9TM2TM3loop; zero Ca^2+, sub-EC50 25 µM ACh): 668.7 ± 340.2%
modulation of ACh-evoked responses by extracellular Ca^2+ (in words) (α9α10E71Q; 100 µM ACh): not potentiated by Ca^2+
ACh response, % of response at […] Ca^2+ (α9α10E71Q; 3 mM Ca^2+, 100 µM ACh): 64.8 ± 2.7%
3 / 0 Ca^2+ ratio of response (α9α10E71Q; +40 mV, 100 µM ACh): 1.05 ± 0.29
3 / 0 Ca^2+ ratio of response (α9α10E71Q; -90 mV, 100 µM ACh): 0.25 ± 0.05
IC50 (α9α10E71Q; [1]): 800 ± 100 µM
ACh response, % of response at […] Ca^2+ (α9α10E71Q; zero Ca^2+, 100 µM ACh): 211.0 ± 35.6%
modulation of ACh-evoked responses by extracellular Ca^2+ (in words) (α9α10^α9Nt–TM2TM3loop; 5 µM ACh): only blocked by increasing Ca^2+ concentrations
ACh response, % of response at […] Ca^2+ (α9α10^α9Nt–TM2TM3loop; 3 mM Ca^2+, 5 µM ACh): 108.1 ± 10.7%
3 / 0 Ca^2+ ratio of response (α9α10^α9Nt–TM2TM3loop; +40 mV, 5 µM ACh): 1.2 ± 0.3
3 / 0 Ca^2+ ratio of response (α9α10^α9Nt–TM2TM3loop; -90 mV, 5 µM ACh): 0.20 ± 0.03
IC50 (α9α10^α9Nt–TM2TM3loop; read-out: Ca^2+ IC50, block of responses to 5 µM ACh, -90 mV): 500 ± 100 µM
ACh response, % of response at […] Ca^2+ (α9α10^α9Nt–TM2TM3loop; zero Ca^2+, 5 µM ACh): 611.3 ± 91.2%
ACh response amplitude normalized to 0 mM Ca^2+ (Imax) (homomeric α9 nAChR; […] Ca^2+, 100 µM ACh, Vhold -70, homomeric α9): 5.63 ± 0.58%
modulation of ACh-evoked responses by extracellular Ca^2+ (in words) (homomeric α9 nAChR; rat α9 nAChRs): only blocked by this ion
IC50 (homomeric α9 nAChR; read-out: Ca^2+ IC50 (50% of response block), homomeric α9, -70 mV): 100 ± 10 µM
modulation of ACh-evoked responses by extracellular Ca^2+ (in words) (α9α10E201Q; 100 µM ACh): not potentiated by Ca^2+
ACh response, % of response at […] Ca^2+ (α9α10E201Q; 3 mM Ca^2+, 100 µM ACh): 74.3 ± 11.2%
3 / 0 Ca^2+ ratio of response (α9α10E201Q; +40 mV, 100 µM ACh): 0.53 ± 0.12
3 / 0 Ca^2+ ratio of response (α9α10E201Q; -90 mV, 100 µM ACh): 0.18 ± 0.05
IC50 (α9α10E201Q; [1]): 900 ± 300 µM
ACh response, % of response at […] Ca^2+ (α9α10E201Q; zero Ca^2+, 100 µM ACh): 201.6 ± 39.7%
modulation of ACh-evoked responses by extracellular Ca^2+ (in words) (α9α10^α9Nt–TM1TM2loop): potentiated by Ca^2+ up to 0.2 mM and blocked by higher concentrations
ACh response, % of response at […] Ca^2+ (α9α10^α9Nt–TM1TM2loop; 0.2 mM Ca^2+): 358.3 ± 32.4%
ACh response, % of response at […] Ca^2+ (α9α10^α9Nt–TM1TM2loop; 3 mM Ca^2+): 73.5 ± 9.3%
0.2 / 0 Ca^2+ ratio of response amplitudes (α9α10^α9Nt–TM1TM2loop; +40 mV): 5.9 ± 2.6
0.2 / 0 Ca^2+ ratio of response amplitudes (α9α10^α9Nt–TM1TM2loop; -90 mV): 5.4 ± 2.4
ACh response, % of response at […] Ca^2+ (α9α10^α9Nt–TM1TM2loop; nominally zero Ca^2+): 95.2 ± 18.8%
modulation of ACh-evoked responses by extracellular Ca^2+ (in words) (α9α10^α9Nt): potentiated by Ca^2+ up to 0.2 mM and blocked by higher concentrations
ACh response, % of response at […] Ca^2+ (α9α10^α9Nt; 0.2 mM Ca^2+): 225.8 ± 18.9%
ACh response, % of response at […] Ca^2+ (α9α10^α9Nt; 3 mM Ca^2+): 64.9 ± 5.9%
0.2 / 0 Ca^2+ ratio of response amplitudes (α9α10^α9Nt; +40 mV): 2.5 ± 0.3
0.2 / 0 Ca^2+ ratio of response amplitudes (α9α10^α9Nt; -90 mV): 2.1 ± 0.4
ACh response, % of response at […] Ca^2+ (α9α10^α9Nt; nominally zero Ca^2+): 115.2 ± 27.3%
